From PubChem BioAssay (NCI)
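Interpolation was linear, between the two tested concentrations surrounding the appropriate level; five concentrations were tested over 48 hours in 96-well plates. TGI: total growth inhibition.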

How the values were obtained:
Assay in all cases: inhibition of tumour cell growth, NCI panel, 48 h
[1] = system: K-562 leukemia
[2] = system: OVCAR-5 ovarian
[3] = system: MALME-3M melanoma
[4] = system: MCF7 breast
[5] = system: HCT-15 colon
[6] = system: DU-145 prostate
[7] = system: A498 renal
[8] = system: T-47D breast
[9] = system: HOP-92 NSCLC
[10] = system: SF-295 CNS
[11] = system: SW-620 colon
[12] = system: PC-3 prostate
[13] = system: SN12C renal
[14] = system: ACHN renal
[15] = system: TK-10 renal
[16] = system: HCC-2998 colon
[17] = system: SK-OV-3 ovarian
[18] = system: IGROV1 ovarian
[19] = system: MDA-MB-435
[20] = system: COLO 205 colon
[21] = system: UO-31 renal
[22] = system: SK-MEL-2 melanoma
[23] = system: MDA-MB-231 breast
[24] = system: CCRF-CEM leukemia
[25] = system: KM20L2 colon
[26] = system: OVCAR-3 ovarian
[27] = system: NCI-H460 lung
[28] = system: CAKI-1 renal
[29] = system: MDA-N
[30] = system: OVCAR-8 ovarian
[31] = system: SF-539 CNS
[32] = system: LOX IMVI melanoma
[33] = system: A549 NSCLC
[34] = system: RPMI-8226 leukemia
[35] = system: SR leukemia
[36] = system: HL-60(TB) leukemia
[37] = system: SK-MEL-5 melanoma
[38] = system: M14 melanoma
[39] = system: NCI-H226 lung
[40] = system: LXFL 529 NSCLC
[41] = system: UACC-257 melanoma
[42] = system: SK-MEL-28 melanoma
[43] = system: DLD-1 colon
[44] = system: SNB-75 CNS
[45] = system: NCI-H23 lung
[46] = system: SNB-78 CNS
[47] = system: HCT-116 colon
[48] = system: NCI-H522 lung
[49] = system: OVCAR-4 ovarian
[50] = system: MOLT-4 leukemia
[51] = system: M19-MEL melanoma
[52] = system: RXF 393 renal
[53] = system: RXF-631 renal
[54] = system: HOP-62 NSCLC
[55] = system: KM12 colon
[56] = system: SNB-19 CNS
[57] = system: 786-0 renal
[58] = system: U251 CNS
[59] = system: HS 578T breast
[60] = system: BT-549 breast
[61] = system: NCI/ADR-RES ovarian
[62] = system: HT29 colon
[63] = system: EKVX NSCLC
[64] = system: SF-268 CNS
[65] = system: UACC-62 melanoma

SMILES: CCCCCCC(=O)OC[n+]1ccc2c(C)c3[nH]c4ccc(OC)cc4c3c(C)c2c1
- TGI [1]: 1.31 µM
- TGI [2]: 2.75 µM
- TGI [3]: 14.2 µM
- TGI [4]: 1.75 µM
- TGI [5]: 1.24 µM
- TGI [6]: 3.59 µM
- TGI [7]: 2.02 µM
- TGI [8]: 11.5 µM
- TGI [9]: 3.49 µM
- TGI [10]: 1.59 µM
- TGI [11]: 1.78 µM
- TGI [12]: 1.51 µM
- TGI [13]: 1.91 µM
- TGI [14]: 4.88 µM
- TGI [15]: 10.4 µM
- TGI [16]: 2.68 µM
- TGI [17]: 3.83 µM
- TGI [18]: 3.83 µM
- TGI [19]: 1.79 µM
- TGI [20]: 1.34 µM
- TGI [21]: 5.48 µM
- TGI [22]: 9.35 µM
- TGI [23]: 2.36 µM
- TGI [24]: 1.63 µM
- TGI [25]: 5.32 µM
- TGI [26]: 4.84 µM
- TGI [27]: 1.02 µM
- TGI [28]: 6.69 µM
- TGI [29]: 1.59 µM
- TGI [30]: 2.12 µM
- TGI [31]: 1.67 µM
- TGI [32]: 1.5 µM
- TGI [33]: 1.88 µM
- TGI [34]: 2.1 µM
- TGI [35]: 3.46 µM
- TGI [36]: 1.7 µM

SMILES: Cc1cccc(C)c1NC(=O)CCCC(=O)C(C#N)c1ccccc1 (stereo not given)
- TGI [1]: > 100 µM
- TGI [37]: > 100 µM
- TGI [38]: > 100 µM
- TGI [39]: > 100 µM
- TGI [40]: > 100 µM
- TGI [9]: > 100 µM
- TGI [11]: > 100 µM
- TGI [14]: > 100 µM
- TGI [17]: > 100 µM
- TGI [41]: > 100 µM
- TGI [18]: > 100 µM
- TGI [42]: > 100 µM
- TGI [20]: > 100 µM
- TGI [21]: > 100 µM
- TGI [22]: > 100 µM
- TGI [24]: > 100 µM
- TGI [43]: > 100 µM
- TGI [44]: > 100 µM
- TGI [45]: > 100 µM
- TGI [28]: > 100 µM
- TGI [46]: > 100 µM
- TGI [47]: > 100 µM
- TGI [48]: > 100 µM
- TGI [49]: > 100 µM
- TGI [34]: > 100 µM
- TGI [50]: > 100 µM
- TGI [35]: > 100 µM
- TGI [51]: > 100 µM
- TGI [52]: > 100 µM
- TGI [36]: > 100 µM
- TGI [53]: > 100 µM

SMILES: O=C(O)[C@H]1NC[C@H]2C(Br)=NO[C@@H]12
- TGI [1]: > 100 µM
- TGI [2]: > 100 µM
- TGI [37]: > 100 µM
- TGI [3]: > 100 µM
- TGI [38]: > 100 µM
- TGI [4]: > 100 µM
- TGI [54]: > 100 µM
- TGI [5]: > 100 µM
- TGI [6]: > 100 µM
- TGI [55]: > 100 µM
- TGI [56]: > 100 µM
- TGI [7]: > 100 µM
- TGI [39]: > 100 µM
- TGI [57]: > 100 µM
- TGI [8]: > 100 µM
- TGI [9]: > 100 µM
- TGI [10]: > 100 µM
- TGI [11]: > 100 µM
- TGI [12]: > 100 µM
- TGI [13]: > 100 µM
- TGI [14]: > 100 µM
- TGI [15]: > 100 µM
- TGI [16]: > 100 µM
- TGI [58]: > 100 µM
- TGI [17]: > 100 µM
- TGI [41]: > 100 µM
- TGI [18]: > 100 µM
- TGI [59]: > 100 µM
- TGI [42]: > 100 µM
- TGI [19]: > 100 µM
- TGI [20]: > 100 µM
- TGI [21]: > 100 µM
- TGI [60]: > 100 µM
- TGI [22]: > 100 µM
- TGI [23]: > 100 µM
- TGI [24]: > 100 µM
- TGI [61]: > 100 µM
- TGI [26]: > 100 µM
- TGI [27]: > 100 µM
- TGI [44]: > 100 µM
- TGI [45]: > 100 µM
- TGI [28]: > 100 µM
- TGI [62]: > 100 µM
- TGI [29]: > 100 µM
- TGI [47]: > 100 µM
- TGI [48]: > 100 µM
- TGI [30]: > 100 µM
- TGI [31]: > 100 µM
- TGI [63]: > 100 µM
- TGI [49]: > 100 µM
- TGI [32]: > 100 µM
- TGI [33]: > 100 µM
- TGI [34]: > 100 µM
- TGI [64]: > 100 µM
- TGI [50]: > 100 µM
- TGI [35]: > 100 µM
- TGI [52]: > 100 µM
- TGI [36]: > 100 µM
- TGI [65]: > 100 µM

SMILES: O=c1[nH]c2c(Nc3c4ccccc4nc4ccccc34)c([N+](=O)[O-])c(Nc3c4ccccc4nc4ccccc34)c([N+](=O)[O-])c2[nH]1
- TGI [1]: 11.7 µM
- TGI [2]: 5.02 µM
- TGI [37]: 4 µM
- TGI [3]: 3.33 µM
- TGI [38]: 4.76 µM
- TGI [4]: 10.2 µM
- TGI [54]: 20.2 µM
- TGI [5]: 6.98 µM
- TGI [6]: 11.5 µM
- TGI [55]: 12 µM
- TGI [56]: 13.7 µM
- TGI [7]: 3.35 µM
- TGI [39]: 6.3 µM
- TGI [57]: > 28.4 µM
- TGI [8]: > 39.1 µM
- TGI [9]: 4.74 µM
- TGI [10]: 12.8 µM
- TGI [11]: > 100 µM
- TGI [12]: 5.97 µM
- TGI [13]: 8.8 µM
- TGI [14]: 4.78 µM
- TGI [15]: > 22.5 µM
- TGI [16]: 3.5 µM
- TGI [58]: 8.35 µM
- TGI [17]: 18.4 µM
- TGI [41]: 10.4 µM
- TGI [18]: 5.18 µM
- TGI [59]: 7.12 µM
- TGI [42]: 11.3 µM
- TGI [19]: 7.29 µM
- TGI [20]: 5.02 µM
- TGI [21]: 2.76 µM
- TGI [60]: 20.6 µM
- TGI [22]: 3.93 µM
- TGI [23]: 4.92 µM
- TGI [24]: 6.02 µM
- TGI [61]: 2.24 µM
- TGI [26]: 6.87 µM
- TGI [27]: > 22.5 µM
- TGI [44]: 7.79 µM
- TGI [45]: 2.74 µM
- TGI [28]: 6.69 µM
- TGI [62]: 3.11 µM
- TGI [29]: 8.49 µM
- TGI [47]: 8.45 µM
- TGI [48]: 2.82 µM
- TGI [30]: 12.6 µM
- TGI [31]: 18.6 µM
- TGI [63]: 5.2 µM
- TGI [49]: 10.1 µM
- TGI [32]: 7.79 µM
- TGI [33]: 3.56 µM
- TGI [34]: 8.27 µM
- TGI [64]: 6.74 µM
- TGI [50]: 2.39 µM
- TGI [35]: 4.07 µM
- TGI [52]: 7.19 µM
- TGI [36]: > 23.7 µM
- TGI [65]: 3.32 µM
